Key:
ENPP1 [1] = target: T1, ENPP1 (Homo sapiens, UniProt P22413); experiment: Measurement of pNP-TMP hydrolysis by ENPP1; assay type: biochemical; conditions: pNP-TMP substrate 500 μM, Km 232 μM; Ki from IC50 by Cheng-Prusoff
T1 sequence (P22413 1-925): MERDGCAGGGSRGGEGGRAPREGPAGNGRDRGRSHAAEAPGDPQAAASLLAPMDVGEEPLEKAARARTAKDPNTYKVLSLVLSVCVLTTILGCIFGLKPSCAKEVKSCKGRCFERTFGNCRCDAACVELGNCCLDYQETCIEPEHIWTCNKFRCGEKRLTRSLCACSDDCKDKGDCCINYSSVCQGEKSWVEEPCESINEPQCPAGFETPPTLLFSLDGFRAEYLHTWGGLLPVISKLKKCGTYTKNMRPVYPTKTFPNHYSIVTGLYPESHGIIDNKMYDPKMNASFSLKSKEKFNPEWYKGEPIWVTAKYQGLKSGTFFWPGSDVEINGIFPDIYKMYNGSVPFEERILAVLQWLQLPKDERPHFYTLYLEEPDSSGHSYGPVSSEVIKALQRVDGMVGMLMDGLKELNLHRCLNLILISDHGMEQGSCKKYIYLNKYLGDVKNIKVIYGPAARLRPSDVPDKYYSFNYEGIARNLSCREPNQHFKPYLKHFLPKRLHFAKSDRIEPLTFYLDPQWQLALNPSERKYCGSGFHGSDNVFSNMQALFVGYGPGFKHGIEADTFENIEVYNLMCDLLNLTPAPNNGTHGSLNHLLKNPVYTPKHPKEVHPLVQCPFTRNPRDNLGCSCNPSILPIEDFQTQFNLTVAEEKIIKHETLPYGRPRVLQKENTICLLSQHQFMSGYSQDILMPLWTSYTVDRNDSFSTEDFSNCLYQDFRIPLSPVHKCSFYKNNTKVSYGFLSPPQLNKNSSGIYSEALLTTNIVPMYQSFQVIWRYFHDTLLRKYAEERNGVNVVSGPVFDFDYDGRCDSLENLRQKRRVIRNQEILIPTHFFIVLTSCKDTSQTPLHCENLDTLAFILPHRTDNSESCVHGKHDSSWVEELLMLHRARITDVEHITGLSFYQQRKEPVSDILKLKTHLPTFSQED
Experimental: Measurement of pNP-TMP hydrolysis by ENPP1
p-Nitrophenyl thymidine 5′-monophosphate (pNP-TMP) is a synthesized substrate for ENPP1. The ENPP1 enzyme activity assay with pNP-TMP substrate was conducted as follows:
First, in a 60 μl reaction, 7.5 ng purified ENPP1 was mixed with 1.2 μl compounds of Formula (I) (test compound) ranging from 13.7 nM to 10 μM. Incubation of ENPP1 with compounds was set at 25° C. for 10 min. Reactions with DMSO only (with ENPP1 but no compound) gave the fastest reaction (MAX Activity). For each compound dilution, wells with assay buffer (50 mM Tris -HCl, pH8.8, 250 mM NaCl, 0.1 mg/ml BSA) and test compounds but no ENPP1 were included as controls for the subtraction of test compound derived absorbance at 405 nm.
Second, after 10 minutes incubation of ENPP1 and test compound, the assay was initiated by transferring 50 μl of the above mentioned ENPP1/test compound reaction into 50 μl of 1 mM pNP-TMP in assay buffer results in a 100 μl total reaction in non-binding surface clear bottom 96 well plates. Absorbance at 405 nm was recorded immediately in kinetic mode by PerkinElmer 2300 Enspire multimode plate reader.
For each inhibitor, the specific ENPP1 activity was calculated using the following equation: ENPP1 activity (pmol/min/μg)=Adjusted Vmax (OD405 nm/min) X conversion factor (pmol/OD405 nm)/amount of enzyme (μg)
Adjusted Vmax=V0X (Km+(S))/(S). In this assay, Km=232 μM, (S)=500 μM. Adjusted Vmax=1.464 X V0.
V0=(OD405 nm with ENPP1-OD405 nm ENPP1 blank)/minutes. OD405 nm was plotted, with blank subtracted, against time (minutes), the initial linear rate is V0.
The conversion factor (pmol/OD405 nm), was determined by plotting the amount of standard, 4-Nitrophenol (Sigma -Aldrich, Catalog #241326), against absorbance at 405 nm. The slope is the conversion factor. The percent ENPP1 activity for each sample was calculated using the following equation: […]
To determine the IC50 for each compound, compound concentration values and percent enzyme activity values were inserted into GraphPad Prism (GraphPad Prism version 9.0 for Windows, GraphPad Software, La Jolla California USA, www.graphpad.com), and Prism's Transform analysis was used to convert the x-axis values (compound concentration) to logarithms. A sigmoidal variable slope nonlinear regression analysis was performed using the following equation: Y=Bottom+ (Top-Bottom)/(1+10^((Log IC50″X) *HillSlope)).
Ki values for each compound were calculated from the observed IC50 from GraphPad analysis using the Cheng-Prusoff equation: Ki=IC50/(1+(S)/KM). (S) here is 500 μM and KM is determined to be 232 μM.

ENPP1 [2] = target: T1, ENPP1; experiment: Measurement of 2′3′-cGAMP hydrolysis by ENPP1 (AMP-Glo); assay type: biochemical; conditions: 2′3′-cGAMP substrate 100 μM, KM 32 μM; Ki from IC50 by Cheng-Prusoff
Experimental: Measurement of 2′3′-cGAMP hydrolysis by ENPP1
The AMP-Glo assay kit from Promega (catalog number V5012) was used for measurement of 5′-AMP production.
First, an ENPP1 and test compound incubation was set up in assay buffer (50 mM Tris -HCl, pH8.8, 250 mM NaCl, 0.1 mg/ml BSA) with following conditions: ENPP1 concentration: 1.25 nM; test compound concentration ranging from 137 pM to 100 nM. The incubation was carried out at 25° C. for 10 min.
Second, after the 10-minute incubation of ENPP1 and test compound, prepare on a separate plate, 15 μl of the substrate 2′3′-cGAMP at 200 μM in assay buffer. Then, 15 μl of the ENPP1/Compound incubation was transferred to the 200 μM 2′3′-cGAMP solution to initiate the reaction. The 30 μl mixture was incubated for 30 min at 25° C. In all these assays a DMSO control without compound was included which gave the maximum 5′-AMP production (MAX RLU). After 30 min the reaction was stopped by heating at 90° C. for 3 min.
Third, the Promega AMP-Glo kit was used to detect 5′-AMP production as a measurement of ENPP1 enzyme activity. Briefly, 10 μl of the above mentioned 30 μl total reaction per sample was transferred into 384 well white solid assay plate for measurement of 5′-AMP production. For each well, 10 μl of AMP-Glo Reagent I was added, mixed well, and incubated for 1 hour at 25° C. At this time AMP detection solution was prepared and 20 μl was added per well, and the resulting solution was incubated for 1 hr at 25° C. Duplicates were run for each inhibitor concentration. Luminescence signal (relative luminescence units, RLU) was recorded using a PerkinElmer 2300 Enspire multimode plate reader.
The % inhibition was calculated using the following equation: % inhibition=(MAX RLU-sample RLU)/MAX RLU X 100%.
IC50 values of compounds were determined by loading compound concentration data and percent inhibition values into GraphPad Prism (GraphPad Prism version 7.0 for
Windows, GraphPad Software, La Jolla California USA, www.graphpad.com) and conducted a Sigmoidal variable slope nonlinear regression fitting.
Ki values for each compound were calculated from the observed IC50 from GraphPad analysis using the Cheng-Prusoff equation: Ki=IC50/(1+ (S)/KM). (S) here is 100μ M and KM is 32 μm.

HGS tumor model = experiment: Anti-tumor activity in HGS tumor model; assay type: in vivo; conditions: animals treated with 20/kg of compound, day 42 after inoculation
Text: […]

Row | Ki (ENPP1 [1]) [nM] | Ki (ENPP1 [2]) [nM] | Structure (SMILES) | tumor size (HGS tumor model) [mm3]
1 | < 10 | < 1 | N=S(=O)(c1cccc(COc2ccnc3c(OCF)nccc23)c1)C1CC1 (racemic) [Example 41, cyclopropyl(3-(((8-(fluoromethoxy)-1,7-naphthyridin-4-yl)oxy)methyl)phenyl)-(imino)-lambda6-sulfanone] | 
2 |  | < 1 | CS(=N)(=O)CC1(O)CCN(c2ccnc3c(OCF)nccc23)CC1 (racemic) [Example 47, ((1-(8-(fluoromethoxy)-1,7-naphthyridin-4-yl)-4-hydroxypiperidin-4-yl)methyl) (imino)(methyl)-lambda6-sulfanone] | 
3 |  | < 1 | COc1nccc2c(OCc3cc(F)cc(S(=N)(=O)C4CC4)c3)ccnc12 (racemic) [Example 66, cyclopropyl(3-fluoro-5-(((8-methoxy-1,7-naphthyridin-4-yl)oxy)methyl)-phenyl) (imino)-lambda6-sulfanone] | 
4 | < 10 | < 1 | CS(=N)(=O)c1cccc(COc2ccnc3c(OCF)nccc23)c1 (racemic) [Example 77, (3-(((8-(fluoromethoxy)-1,7-naphthyridin-4-yl)oxy)methyl)phenyl) (imino)(methyl)-lambda6-sulfanone] | 
5 | < 10 | < 1 | COc1nccc2c(N3CC4(CC(CS(C)(=N)=O)C4)C3)ncnc12 (single isomer, unassigned) [Example 2a, imino ((2-(8-methoxypyrido[3,4-d]pyrimidin-4-yl)-2-azaspiro[3.3]heptan-6-yl)methyl)(methyl)-lambda6-sulfanone] | 
6 | < 10 | < 1 | N=[S@@](=O)(c1cccc(COc2ccnc3c(OCF)nccc23)c1)C1CC1 (single isomer, unassigned) [Example 43] | 
7 | < 10 | < 1 | C[S@](=N)(=O)CC1(O)CCN(c2ccnc3c(OCF)nccc23)CC1 (single isomer, unassigned) [Example 49] | 
8 | < 10 | < 1 | COc1nccc2c(OCc3cc(F)cc([S@@](=N)(=O)C4CC4)c3)ccnc12 (single isomer, unassigned) [Example 67] | 
9 | < 10 | < 1 | COc1nccc2c(OCc3cc(F)cc([S@@](C)(=N)=O)c3)ccnc12 (single isomer, unassigned) [Example 71] | 
10 | < 10 | < 1 | C[S@](=N)(=O)c1cccc(COc2ccnc3c(OCF)nccc23)c1 (single isomer, unassigned) [Example 79] | 
11 |  |  | C=CC(=O)N1CCN(CCCn2c(=O)c(-c3c(Cl)c(OC)cc(OC)c3Cl)cc3cnc(NC)nc32)CC1 [8-(3-(4-acryloylpiperazin-1-yl)propyl)-6-(2,6-dichloro-3,5-dimethoxyphenyl)-2-(methylamino)pyrido (2,3-d)pyrimidin-7 (8H)-one] | 55
12 | < 10 | 1 to 5 | CS(=N)(=O)c1cccc(COc2ccnc3cnccc23)c1 (stereo not shown) [Example 9] | 
13 | < 10 | < 1 | COc1nccc2c(OCc3cccc([S@@](=N)(=O)C4CC4)c3)ccnc12 [Example 17b, (S)-Cyclopropyl(imino)(3-(((8-methoxy-1,7-naphthyridin-4-yl)oxy)methyl)phenyl)-lamba6-sulfanone] | 
14 |  | < 1 | COc1nccc2c(N3CCC(O)(CS(C)(=N)=O)CC3)ccnc12 (stereo not shown) [Example 25] | 
15 | < 10 | < 1 | N=S(=O)(c1cc(F)cc(COc2ccnc3c(OCF)nccc23)c1)C1CC1 (stereo not shown) [Example 69, cyclopropyl(3-fluoro-5-(((8-(fluoromethoxy)-1,7-naphthyridin-4-yl)oxy)-methyl)phenyl) (imino)-lambda6-sulfanone] | 
16 |  | < 1 | CS(=N)(=O)c1cc(F)cc(COc2ccnc3c(OCF)nccc23)c1 (stereo not shown) [Example 72, (3-fluoro-5-(((8-(fluoromethoxy)-1,7-naphthyridin-4-yl)oxy)methyl)phenyl)-(imino)(methyl)-lambda6-sulfanone] | 
17 | < 10 |  | COc1nccc2c(OCc3cccc([S@@](=N)(=O)C(C)(C)C)c3)ccnc12 [Example 74, (S)-tert-butyl(imino) (3-(((8-methoxy-1,7-naphthyridin-4-yl)oxy)methyl)phenyl)-lambda6-sulfanone] | 
18 | < 10 |  | COc1nccc2c(OCc3cccc([S@@](C)(=N)=O)c3)ccnc12 [Example 75, (S)-imino (3-(((8-methoxy-1,7-naphthyridin-4-yl)oxy)methyl)phenyl)(methyl)-lambda6-sulfanone] | 
19 | 10 to 100 |  | COc1nccc2c(OCc3cccc([S@](=N)(=O)C(C)(C)C)c3)ccnc12 [Example 76, (R)-tert-butyl(imino) (3-(((8-methoxy-1,7-naphthyridin-4-yl)oxy)methyl)phenyl)-lambda6-sulfanone] | 
20 | < 10 |  | COc1nccc2c(OCc3cccc([S@@](=N)(=O)C(C)C)c3)ccnc12 [Example 84, (S)-imino(isopropyl)(3-(((8-methoxy-1,7-naphthyridin-4-yl)oxy)methyl)phenyl)-lambda6-sulfanone] | 

Reference: patent publication US20250320204A1 (RIBOSCIENCE LLC, priority 2023, published 2025)
